This note sets out measurements from US20240360091A1, “GLUN2B-SUBUNIT SELECTIVE ANTAGONISTS OF THE N-METHYL-D-ASPARTATE RECEPTORS WITH ENHANCED POTENCY AT ACIDIC PH” (Emory University, priority 2021, published 2024).

Read-outs that look alike come from different tables or passages of the source.

As a reminder, the Ki is a measure of affinity in units of concentration, obtained from inhibition or displacement. As usually defined, the IC50 is the concentration at which inhibition is half-maximal. The Cmax is the highest concentration seen after dosing. By Tmax is commonly meant the time at which the peak concentration occurs. One may read the half-life as the time in which the quantity being followed falls by half. Low values mean fast loss, high ones slow loss.

Data set [1] has as its target 5-HT2A (Homo sapiens (Human), UniProt P28223). Briefly: Off-target radioligand binding displacement (NIMH PDSP). The settings on record: pH 7.4.
Experimental: (§3) Briefly, the compound was submitted to the NIMH PDSP and screened at a single concentration (10 μM) of test article under equilibrium conditions for ability to displace specific radioligands from binding to their targets expressed in mammalian cell membranes in vitro. Each receptor target was assayed in quadruplicate and the % inhibition of radioligand binding at each target determined at pH 7.4. […]
For data set [2], the target named is SERT (Homo sapiens (Human), UniProt P31645). Described as above. The settings on record: pH 7.4.
SERT, sequence (P31645 whole entry, species assumed): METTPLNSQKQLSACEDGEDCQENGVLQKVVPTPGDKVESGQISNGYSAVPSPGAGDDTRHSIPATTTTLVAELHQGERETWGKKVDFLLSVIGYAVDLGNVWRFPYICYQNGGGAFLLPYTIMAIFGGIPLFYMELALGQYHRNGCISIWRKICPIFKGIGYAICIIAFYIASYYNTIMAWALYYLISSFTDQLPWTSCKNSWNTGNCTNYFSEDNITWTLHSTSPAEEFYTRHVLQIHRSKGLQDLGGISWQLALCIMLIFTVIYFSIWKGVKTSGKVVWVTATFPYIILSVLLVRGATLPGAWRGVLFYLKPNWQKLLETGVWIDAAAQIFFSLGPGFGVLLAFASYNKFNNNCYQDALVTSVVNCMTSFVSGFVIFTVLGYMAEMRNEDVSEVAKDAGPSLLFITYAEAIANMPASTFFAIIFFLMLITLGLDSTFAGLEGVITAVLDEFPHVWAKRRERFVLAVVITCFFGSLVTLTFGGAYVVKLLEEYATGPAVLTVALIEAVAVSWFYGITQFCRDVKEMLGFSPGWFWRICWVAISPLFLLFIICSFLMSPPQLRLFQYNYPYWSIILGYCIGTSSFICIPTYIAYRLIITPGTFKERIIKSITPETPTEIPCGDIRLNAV
Experimental: as §3
Data set [3] in a line: Plasma protein binding, rapid equilibrium dialysis, dog. The format is in vitro ADME. The settings on record: n=1. How it is done: (§1) Plasma protein binding was performed with a rapid equilibrium dialysis (RED) device containing dialysis membrane with a molecular weight cut-off of 8,000 Daltons according to the manufacturer's instructions (ThermoFisher, USA). The plasma samples (pH 7.4) and the test compound solution (1 or 5 μM) or reference standards (Warfarin and Propranolol, 10 μM) were combined (DMSO final conc 0.1%). 300 μL of this spiked plasma sample was added to the sample chamber, and 500 μL of blank PBS buffer (pH 7.4) was added into the buffer chamber. The RED device was sealed with adhesive film and then incubated at 37° C. with shaking at 300 rpm for 4 h. Following incubation, an aliquot (50 μL) was removed from each well (spiked plasma and buffer side) and diluted with equal volume of the corresponding opposite matrix (blank buffer or blank plasma) to nullify the matrix effect, and then extracted for analysis by LC-MS/MS. The amount of free material was determined by:
(§2) % Free=(LC-MS/MS peak area of test compound in buffer side/LC-MS/MS peak area of test compound in plasma side)×100%
A general note: Equilibrium dialysis compares concentrations on both sides of a semipermeable membrane.

Data set [4] can be described thus: Liver microsome stability, human. The format is in vitro ADME. The settings on record: 1 μM, with cofactors, one-hour incubation at 37° C. How it is done:
Metabolic stability was assessed using human and mouse liver microsomes (Xenotech, USA). The final composition of the assay included 1 μM of the test compound or reference standards (imipramine and diclofenac sodium) prepared from DMSO or acetonitrile stock, so that the final concentration of DMSO and acetonitrile was 0.2% and 0.8%, respectively. The test compound was incubated with 0.5 mg/mL microsomal protein without (100 mM potassium phosphate buffer alone, pH 7.4) or with cofactors (5.0 mM glucose-6-phosphate, 0.06 U glucose-6-phosphate dehydrogenase, 2.0 mM MgCl2, 1.0 mM NADP^+/NADPH). The test compound and standards were incubated at 37° C. with human and mouse liver microsomes; aliquots of the reaction mixture (100 μL) were removed at 0, 5, 15, 30, 60 and 120 min. The reaction in the aliquots was stopped by the addition of 2.5 mL tert-butyl methyl ether and the samples were subjected to shaking for 15 min. […] The percent of the test compound remaining after the specified incubation period was calculated with respect to the peak areas of the test compound at time 0 min.
The compound and standards were incubated with human and mouse liver microsomes with or without cofactors, and the samples were extracted and analyzed using LC-MS/MS, as described above.
In general terms: Liver microsomes are a subcellular fraction often used to study metabolism.

Data set [5] has as its target human GluN1/GluN2B (Homo sapiens (Human), UniProt Q05586+Q13224). Nature of the data set: Two electrode voltage-clamp recordings from Xenopus laevis oocytes, GluN2B potency and pH dependence. The format is cell-based. As to the method:
Two Electrode Voltage-Clamp Recordings from Xenopus laevis Oocytes
Stage V-VI Xenopus laevis unfertilized oocytes were purchased from Ecocyte (Austin, Texas) and injected with 5 ng of GluN1 and 10 ng of GluN2B cRNAs. The cDNAs for human GluN1 and GluN2B, encoding NCBI reference sequences NM_007327.3 and NM_000834.3, respectively, were linearized and cRNAs made as previously described (Traynelis et al., J Neurosci, 1998, 18(16):6163-75). After injection, the oocytes were incubated in Barth's culture solution (88 mM NaCl, 1 mM KCl, 2.4 mM NaHCO3, 10 mM HEPES, 0.82 mM MgSO4, 0.33 mM Ca(NO3)2, 0.41 mM CaCl2), 10 U/mL PenStrep, and 0.1 mg/mL gentamycin, pH 7.4) at 18° C. Two electrode voltage-clamp (TEVC) recordings were made at 22-23° C., 2-7 days after the injection, using Warner OC725C amplifiers (VHOLD=−40 mV). Briefly, the oocytes were perfused in a recording solution (90 mM NaCl, 1 mM KCl, 10 mM HEPES, 0.01 mM EDTA, and 0.5 mM BaCl2) adjusted to either pH 7.6 or 6.9 by addition of NaOH or HCl, respectively (pH 6.9 solutions were prepared by addition of HCl to pH 7.6 solutions to maintain an equal concentration of Na^+ ions in both solutions). Concentration-response curves of the compounds were obtained by application of increasing concentrations of each individual compound until steady state conditions were obtained, in the presence of saturating agonist concentrations (i.e., 100 μM glutamate and 30 μM glycine). In general, oocyte recordings were made from 4-10 oocytes per experiment (i.e., oocyte injection cycle) from ≥two experiments. The concentration-response relationship for each oocyte was fit by equation (1),
Percent Response=(100−minimum)/(1+([concentration]/IC50)^nH)+minimum (1)
where minimum is the residual response in saturating concentration of each individual compound (constrained to be ≥0), and IC50 is the concentration of compound that causes half-maximal inhibition, and nH is the Hill slope.
In general terms: Two-electrode voltage clamp holds a large cell at a set potential and records current.

Data set [6] deals with CYP3A4 (Homo sapiens (Human), UniProt P08684). Briefly: Cytochrome P450 inhibition (Vivid CYP blue screening kit), CYP3A4. The format is in vitro ADME. The settings on record: 1 μM. How it is done:
Inhibition of CYP2D6 and CYP3A4 was accomplished using recombinant human isoforms and a Vivid CYP blue screening kit (Invitrogen, USA) by incubating 2-fold serial dilutions (9 samples) of the test compound with kit reagents and reaction buffer according to the manufacturer's methods in a 96-well plate. The plate was then incubated at room temperature for 30 min before fluorescence was measured with a plate reader. For these studies, reference standards ketoconazole (CYP3A4) and quinidine (CYP2D6) were used as controls.

Data set [7] is described as follows: Plasma protein binding, rapid equilibrium dialysis, human. The settings on record: n=2. The format is in vitro ADME. How it is done: as §1, §2
Data set [8] concerns the target hERG potassium channel (Homo sapiens (Human), UniProt Q12809). Nature of the data set: hERG potassium channel current, automatic patch clamp in HEK cells. The class given is cell-based. The settings on record: pH 7.4, patch clamp; read-out: Functional IC50 (μM) hERG. How it is done: Each test concentration was tested in two or more cells (n≥2). Duration of exposure to each test article concentration was 3 minutes. A positive control (0.5 μM […]) was used to confirm the sensitivity of the cells to an hERG inhibitor.

Data set [9] in a line: clinical. The settings on record: human, plasma, intravenous.
Experimental: Subjects checked into the clinic on Day 1 and remained in the clinic through the 48 h post-dose blood draw on Day 7, after which time they were discharged. Subjects returned to the clinic for a follow-up visit at Day 9. […] Dose levels included 25, 50 and 100 mg.
Collection tubes containing K2EDTA were be used to collect 5 mL of whole blood sample at each time point. Immediately after collection, tubes were inverted to mix the anticoagulant with the blood sample. Tubes were then centrifuged at a speed of approximately 3000 g force for 10 minutes at 4° C. Within 5 minutes of centrifugation the plasma fraction was transferred into two equal aliquots (1.25 mL each) into 2 mL cryovials and then frozen and stored at −70° C.
The method was adapted and used to measure plasma samples by TMD Pharmaceutical Research (Newark, DE). […] Analytes were detected by multiple reaction monitoring using an MDS Sciex API 4000 mass spectrometer (AB Sciex, Framingham, MA) in positive mode.
The pharmacokinetic analysis was performed based on the non-compartmental analysis approach (M. Garibaldi and D Perrier, Pharmacokinetics 2nd Edition, Chapter 11, Marcel Dekker Inc., New York, 1982) using MS Excel®.

human GluN1/GluN2B, sequence (Q13224 27-1484, other chains not shown): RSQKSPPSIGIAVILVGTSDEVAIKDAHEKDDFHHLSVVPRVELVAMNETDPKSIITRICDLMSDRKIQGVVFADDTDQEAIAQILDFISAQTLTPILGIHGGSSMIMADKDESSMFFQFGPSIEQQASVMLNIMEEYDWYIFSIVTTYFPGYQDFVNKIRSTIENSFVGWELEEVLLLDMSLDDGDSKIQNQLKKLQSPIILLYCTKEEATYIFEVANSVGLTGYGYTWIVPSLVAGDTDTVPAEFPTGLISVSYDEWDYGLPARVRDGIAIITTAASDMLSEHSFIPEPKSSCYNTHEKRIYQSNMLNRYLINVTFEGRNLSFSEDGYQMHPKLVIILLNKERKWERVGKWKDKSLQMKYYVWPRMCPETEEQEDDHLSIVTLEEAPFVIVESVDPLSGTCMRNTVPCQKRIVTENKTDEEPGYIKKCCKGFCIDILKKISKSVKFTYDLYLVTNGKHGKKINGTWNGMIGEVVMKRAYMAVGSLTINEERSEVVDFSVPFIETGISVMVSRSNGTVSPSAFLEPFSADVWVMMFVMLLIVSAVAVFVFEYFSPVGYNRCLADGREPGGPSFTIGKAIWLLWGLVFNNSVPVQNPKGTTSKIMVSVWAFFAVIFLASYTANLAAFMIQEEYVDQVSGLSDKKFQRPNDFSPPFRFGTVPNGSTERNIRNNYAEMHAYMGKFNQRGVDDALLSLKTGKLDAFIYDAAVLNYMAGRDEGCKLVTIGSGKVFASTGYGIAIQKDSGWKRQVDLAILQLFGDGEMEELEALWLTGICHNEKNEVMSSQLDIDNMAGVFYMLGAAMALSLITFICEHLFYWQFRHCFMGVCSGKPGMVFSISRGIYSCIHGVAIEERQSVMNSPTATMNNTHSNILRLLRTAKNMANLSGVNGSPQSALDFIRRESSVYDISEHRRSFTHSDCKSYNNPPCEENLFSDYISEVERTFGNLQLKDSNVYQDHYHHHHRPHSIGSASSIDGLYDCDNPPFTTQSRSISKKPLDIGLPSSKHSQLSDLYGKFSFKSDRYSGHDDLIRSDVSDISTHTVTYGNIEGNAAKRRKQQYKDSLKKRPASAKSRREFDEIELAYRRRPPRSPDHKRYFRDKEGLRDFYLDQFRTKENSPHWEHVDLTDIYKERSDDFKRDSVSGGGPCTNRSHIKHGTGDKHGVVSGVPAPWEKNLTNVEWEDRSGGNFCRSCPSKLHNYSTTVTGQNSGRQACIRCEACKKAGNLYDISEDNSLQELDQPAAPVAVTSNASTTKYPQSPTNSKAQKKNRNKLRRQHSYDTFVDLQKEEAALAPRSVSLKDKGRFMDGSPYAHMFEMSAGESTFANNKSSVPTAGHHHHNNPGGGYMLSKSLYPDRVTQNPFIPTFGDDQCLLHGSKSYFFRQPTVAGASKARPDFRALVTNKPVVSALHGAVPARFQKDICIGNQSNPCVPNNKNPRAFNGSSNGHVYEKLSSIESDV
CYP3A4, sequence (P08684 whole entry, canonical isoform): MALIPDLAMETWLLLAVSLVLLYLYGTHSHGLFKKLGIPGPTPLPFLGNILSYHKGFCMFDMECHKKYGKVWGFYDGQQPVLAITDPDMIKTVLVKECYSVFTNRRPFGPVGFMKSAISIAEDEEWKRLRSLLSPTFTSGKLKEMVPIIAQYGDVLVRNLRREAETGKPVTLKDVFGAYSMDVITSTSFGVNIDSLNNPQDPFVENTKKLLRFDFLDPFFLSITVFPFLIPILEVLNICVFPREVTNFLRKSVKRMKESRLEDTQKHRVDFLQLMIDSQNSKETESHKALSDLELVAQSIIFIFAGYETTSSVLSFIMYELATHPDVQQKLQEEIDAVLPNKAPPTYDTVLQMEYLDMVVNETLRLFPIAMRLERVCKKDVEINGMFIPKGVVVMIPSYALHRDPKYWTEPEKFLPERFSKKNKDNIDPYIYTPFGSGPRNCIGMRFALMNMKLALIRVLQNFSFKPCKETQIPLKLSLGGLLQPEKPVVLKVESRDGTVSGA
5-HT2A, sequence (P28223 whole entry): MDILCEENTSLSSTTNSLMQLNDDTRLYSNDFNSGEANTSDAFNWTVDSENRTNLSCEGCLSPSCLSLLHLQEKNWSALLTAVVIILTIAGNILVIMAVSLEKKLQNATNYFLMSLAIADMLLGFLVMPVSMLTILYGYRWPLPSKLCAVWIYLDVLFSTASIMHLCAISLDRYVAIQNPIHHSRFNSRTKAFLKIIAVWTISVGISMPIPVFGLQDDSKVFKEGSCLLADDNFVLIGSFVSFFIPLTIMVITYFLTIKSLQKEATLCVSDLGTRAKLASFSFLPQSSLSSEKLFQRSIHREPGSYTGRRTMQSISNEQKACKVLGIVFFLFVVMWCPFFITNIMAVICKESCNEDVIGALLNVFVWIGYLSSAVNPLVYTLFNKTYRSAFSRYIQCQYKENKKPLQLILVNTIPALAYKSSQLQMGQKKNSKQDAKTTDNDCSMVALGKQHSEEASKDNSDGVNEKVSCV
hERG potassium channel, sequence (Q12809 whole entry): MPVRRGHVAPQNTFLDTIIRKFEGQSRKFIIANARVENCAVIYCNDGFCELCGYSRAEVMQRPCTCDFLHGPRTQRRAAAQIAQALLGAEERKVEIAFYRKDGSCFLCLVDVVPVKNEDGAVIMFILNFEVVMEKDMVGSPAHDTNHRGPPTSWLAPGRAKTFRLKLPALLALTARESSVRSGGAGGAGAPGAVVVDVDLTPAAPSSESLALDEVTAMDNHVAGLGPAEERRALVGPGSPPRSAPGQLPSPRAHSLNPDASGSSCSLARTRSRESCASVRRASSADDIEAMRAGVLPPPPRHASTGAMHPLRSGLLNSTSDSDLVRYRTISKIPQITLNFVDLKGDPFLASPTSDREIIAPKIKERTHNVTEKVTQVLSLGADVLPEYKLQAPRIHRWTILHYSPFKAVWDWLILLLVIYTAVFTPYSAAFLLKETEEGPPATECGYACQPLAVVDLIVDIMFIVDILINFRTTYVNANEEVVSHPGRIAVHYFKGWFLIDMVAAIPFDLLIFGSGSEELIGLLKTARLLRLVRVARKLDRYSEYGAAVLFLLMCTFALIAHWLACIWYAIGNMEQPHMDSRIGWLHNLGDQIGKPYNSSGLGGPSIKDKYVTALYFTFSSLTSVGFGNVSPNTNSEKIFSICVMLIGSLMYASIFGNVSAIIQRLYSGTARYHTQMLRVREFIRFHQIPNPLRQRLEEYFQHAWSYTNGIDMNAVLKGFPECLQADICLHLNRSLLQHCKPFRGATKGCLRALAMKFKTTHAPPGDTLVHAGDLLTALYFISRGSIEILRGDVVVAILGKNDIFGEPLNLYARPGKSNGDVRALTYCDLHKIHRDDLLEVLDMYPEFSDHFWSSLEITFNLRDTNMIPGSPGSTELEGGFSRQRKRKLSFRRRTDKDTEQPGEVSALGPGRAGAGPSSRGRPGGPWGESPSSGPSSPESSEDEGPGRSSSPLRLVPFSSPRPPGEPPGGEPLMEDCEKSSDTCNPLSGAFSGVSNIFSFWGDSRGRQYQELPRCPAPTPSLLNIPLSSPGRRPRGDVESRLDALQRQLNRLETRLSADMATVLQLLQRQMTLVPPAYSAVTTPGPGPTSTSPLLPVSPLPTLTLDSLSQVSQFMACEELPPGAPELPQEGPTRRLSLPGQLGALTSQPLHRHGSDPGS

On to `O=C1CCc2cc(OC[C@H](O)CN3CCN(c4ccc(C(F)(F)F)cc4)CC3)ccc2N1` [NP10679], for which the Ki in data set [1] was 0.638 µM; in [2], 0.135 µM. For the same compound, in [3], the “bound to dog plasma proteins” value was 98.2%. For the same compound, in [4], the “percent remaining in human liver microsomes” value came out at 72%. Moreover, the IC50 in data set [5] (pH 6.9, read-out: IC50 (μM) pH 6.9) was 0.023 µM; in [5] (pH 6.9, read-out: IC50 value at pH 6.9), 0.023 µM; in data set [5] (pH 7.6, read-out: IC50 (μM) pH 7.6), 0.142 µM; in data set [5] (pH 7.6, read-out: IC50 value at pH 7.6), 0.142 µM; in [8] it was 0.617 µM. Besides, in [5] (ratio of IC50 at pH 7.6 to IC50 at pH 6.9), the “pH Boost” value amounted to 6.2. For the same compound, the “inhibition of CYP3A4” value in data set [6] is given as “did not inhibit”. In [7], the “bound to human plasma proteins” value came out at 97.7%. Also, the results for the Cmax in [9] (25 mg) and in data set [9] (50 mg) were 213 ± 26 ng/mL and 394 ± 72 ng/mL, respectively. The figures for the Tmax in [9] (25 mg) and in data set [9] (50 mg) were 0.5 h and 1 ± 0.4 h, respectively. The half-life was 15.4 to 36.2 h in data set [9] (25 mg), 15.5 to 25.6 h in data set [9] (50 mg) and 12.5 to 34 h in data set [9] (100 mg).
